Results published in US11542530B2, “Method for increasing efficiency of homologous recombination-based gene editing in plant” (INDUSTRY-ACADEMIC COOPERATION FOUNDATION GYEONGSANG …, priority 2018, dated 2023).
Where two headings read alike, the source gives them in different places.

Tests used:
[1] = system: RAD51; experiment: HDR efficiency after treatment with RS-1; type: cell-based; details: RS-1 as activator of RAD51
Description: As a method which can be used either simultaneously or separately from the approaching method of above VI, there is a method of activating HDR pathway-regulating proteins by using chemical factors.

[2] = system: recombinase RAD51; details: mouse, reported; cited from earlier work
[3] = system: ligase IV of the NHEJ pathway; experiment: HDR efficiency after treatment with NHEJ inhibitor SCR7 pyrazine, tomato cotyledons with pTC217 / pTC147; type: cell-based; details: for Editing efficiency: total purple spots (pTC217)/total purple spots (pTC147)×100 / Editing efficiency / Purple spot/cotyledon (Avg.) / Purple spots (Total): 21 dpi
Description: In the present invention, a method of increasing the HDR efficiency according to blocking of the NHEJ pathway by using Scr7 pyrazine chemical compound, which is an inhibitor of ligase IV of the NHEJ pathway in competitive relationship with the HDR pathway, was employed. As a result, when Scr7 pyrazine is used, the HDR efficiency had increased by 4 times compared to the comparative control group.
In order to measure the HDR frequency of Cas9, 21 days after the Agrobacterium infection, purple spots were counted from the cotyledon which has been infected with pTC217 (BeYDV with Cas9/gRNA1b) virus replicon and also from the cotyledon which has been transformed with pTC147 (35S:ANT1 T-DNA) control vector. By dividing the total number of purple spots that has been counted from callus generated with pTC217 by the total number of purple spots that has been counted from callus generated with pTC147, the HDR frequency rate was estimated.
DNA repair is mostly achieved by NHEJ pathway, and HDR-based repair occurs very limitedly. According to previous studies made on mammals, it was reported that HDR efficiency can be increased by blocking the NHEJ pathway. It is reported that SCR7 pyrazine, which is an inhibitor of mammalian ligase IV, can increase HDR as much as about 19 times in mouse, or 5 times in human cell line. […] However, no report has been made regarding the influence of SCR7 pyrazine on plant HDR. Accordingly, the effect of a treatment with different cultivation period (0, 1, 2 or 3 days) or different SCR7 pyrazine concentration (0, 1, 10 μM) was examined by the inventors of the present invention by using Cas9 structure pTC217 (BeYDV having Cas9/gRNA1b).
[Editing efficiency: total purple spots (pTC217)/total purple spots (pTC147)×100]

[4] = system: ligase IV; details: reported, background art; cited from earlier work
[5] = system: mammalian ligase IV; details: mouse, reported; cited from earlier work
[6] = system: mammalian ligase IV; details: human cell line, reported; cited from earlier work
[7] = Table 13 (Change 1), pTC147 (T-DNA), SCR7 1 μM, 1 day, cv. Hong-Kwang, DD→16L/8D, 28° C.
[8] = Table 13 (Change 1), pTC147 (T-DNA), SCR7 1 μM, 2 days, cv. Hong-Kwang, DD→16L/8D, 28° C.
[9] = Table 13 (Change 1), pTC147 (T-DNA), SCR7 1 μM, 3 days, cv. Hong-Kwang, DD→16L/8D, 28° C.
[10] = Table 13 (Change 1), pTC147 (T-DNA), SCR7 10 μM, 1 day, cv. Hong-Kwang, DD→16L/8D, 28° C.
[11] = Table 13 (Change 1), pTC147 (T-DNA), SCR7 10 μM, 2 days, cv. Hong-Kwang, DD→16L/8D, 28° C.
[12] = Table 13 (Change 1), pTC147 (T-DNA), SCR7 10 μM, 3 days, cv. Hong-Kwang, DD→16L/8D, 28° C.
[13] = Table 13 (Change 1), pTC217, SCR7 1 μM, 1 day, cv. Hong-Kwang, DD→16L/8D, 28° C.
[14] = Table 13 (Change 1), pTC217, SCR7 1 μM, 2 days, cv. Hong-Kwang, DD→16L/8D, 28° C.
[15] = Table 13 (Change 1), pTC217, SCR7 1 μM, 3 days, cv. Hong-Kwang, DD→16L/8D, 28° C.
[16] = Table 13 (Change 1), pTC217, SCR7 10 μM, 1 day, cv. Hong-Kwang, DD→16L/8D, 28° C.
[17] = Table 13 (Change 1), pTC217, SCR7 10 μM, 2 days, cv. Hong-Kwang, DD→16L/8D, 28° C.
[18] = Table 13 (Change 1), pTC217, SCR7 10 μM, 3 days, cv. Hong-Kwang, DD→16L/8D, 28° C.
[19] = Table 14 (Change 2), pTC147 (T-DNA), SCR7 1 μM, 1 day, cv. Hong-Kwang, DD→16L/8D, 28° C.
[20] = Table 14 (Change 2), pTC147 (T-DNA), SCR7 1 μM, 2 days, cv. Hong-Kwang, DD→16L/8D, 28° C.
[21] = Table 14 (Change 2), pTC147 (T-DNA), SCR7 1 μM, 3 days, cv. Hong-Kwang, DD→16L/8D, 28° C.
[22] = Table 14 (Change 2), pTC147 (T-DNA), SCR7 10 μM, 1 day, cv. Hong-Kwang, DD→16L/8D, 28° C.
[23] = Table 14 (Change 2), pTC147 (T-DNA), SCR7 10 μM, 2 days, cv. Hong-Kwang, DD→16L/8D, 28° C.
[24] = Table 14 (Change 2), pTC147 (T-DNA), SCR7 10 μM, 3 days, cv. Hong-Kwang, DD→16L/8D, 28° C.
[25] = Table 14 (Change 2), pTC217, SCR7 1 μM, 1 day, cv. Hong-Kwang, DD→16L/8D, 28° C.
[26] = Table 14 (Change 2), pTC217, SCR7 1 μM, 2 days, cv. Hong-Kwang, DD→16L/8D, 28° C.
[27] = Table 14 (Change 2), pTC217, SCR7 1 μM, 3 days, cv. Hong-Kwang, DD→16L/8D, 28° C.
[28] = Table 14 (Change 2), pTC217, SCR7 10 μM, 1 day, cv. Hong-Kwang, DD→16L/8D, 28° C.
[29] = Table 14 (Change 2), pTC217, SCR7 10 μM, 2 days, cv. Hong-Kwang, DD→16L/8D, 28° C.
[30] = Table 14 (Change 2), pTC217, SCR7 10 μM, 3 days, cv. Hong-Kwang, DD→16L/8D, 28° C.
[31] = pTC147 (T-DNA), SCR7 1 μM, cv. Tom-Heart, 16L/8D, 25° C.
[32] = pTC147 (T-DNA), SCR7 10 μM, cv. Tom-Heart, 16L/8D, 25° C.
[33] = pTC217, SCR7 1 μM, cv. Tom-Heart, 16L/8D, 25° C.
[34] = pTC217, SCR7 10 μM, cv. Tom-Heart, 16L/8D, 25° C.

SMILES: O=C(Nc1ccc(Br)cc1)c1ccc(Br)c(S(=O)(=O)NCc2ccccc2)c1 [RS-1, RAD51-stimulatory compound 1]
- increase of HDR efficiency [1]: approximately 3 times
- effect on HDR efficiency [2]: can increase the HDR efficiency in mouse

SMILES: O=c1[nH]c(=S)[nH]c2nc(-c3ccccc3)c(-c3ccccc3)nc12 [SCR7, 2,3-dihydro-6,7-diphenyl-2-thioxo-4 (1H)-pteridinone]
- Editing efficiency: total purple spots (pTC217)/total purple spots (pTC147)×100 ([3]; SCR7 1 μM, cv. Tom-Heart, 16L/8D, 25° C.): 4.5
- Editing efficiency: total purple spots (pTC217)/total purple spots (pTC147)×100 ([3]; SCR7 10 μM, cv. Tom-Heart, 16L/8D, 25° C.): 11.9
- Editing efficiency ([3]; Table 13 (Change 1), SCR7 1 μM, 1 day, cv. Hong-Kwang, DD→16L/8D, 28° C.): 1.89
- Editing efficiency ([3]; Table 13 (Change 1), SCR7 1 μM, 2 days, cv. Hong-Kwang, DD→16L/8D, 28° C.): 3.39
- Editing efficiency ([3]; Table 13 (Change 1), SCR7 1 μM, 3 days, cv. Hong-Kwang, DD→16L/8D, 28° C.): 7.74
- Editing efficiency ([3]; Table 13 (Change 1), SCR7 10 μM, 1 day, cv. Hong-Kwang, DD→16L/8D, 28° C.): 3.41
- Editing efficiency ([3]; Table 13 (Change 1), SCR7 10 μM, 2 days, cv. Hong-Kwang, DD→16L/8D, 28° C.): 9.27
- Editing efficiency ([3]; Table 13 (Change 1), SCR7 10 μM, 3 days, cv. Hong-Kwang, DD→16L/8D, 28° C.): 22.93
- Purple spot/cotyledon (Avg.) [3, 7]: 28.7
- Purple spots (Total) [3, 7]: 1005
- Purple spot/cotyledon (Avg.) [3, 8]: 26.9
- Purple spots (Total) [3, 8]: 942
- Purple spot/cotyledon (Avg.) [3, 9]: 23.2
- Purple spots (Total) [3, 9]: 813
- Purple spot/cotyledon (Avg.) [3, 10]: 20.1
- Purple spots (Total) [3, 10]: 703
- Purple spot/cotyledon (Avg.) [3, 11]: 18.8
- Purple spots (Total) [3, 11]: 658
- Purple spot/cotyledon (Avg.) [3, 12]: 14.2
- Purple spots (Total) [3, 12]: 497
- Purple spot/cotyledon (Avg.) [3, 13]: 0.55
- Purple spots (Total) [3, 13]: 19
- Purple spot/cotyledon (Avg.) [3, 14]: 0.93
- Purple spots (Total) [3, 14]: 32
- Purple spot/cotyledon (Avg.) [3, 15]: 1.8
- Purple spots (Total) [3, 15]: 63
- Purple spot/cotyledon (Avg.) [3, 16]: 0.68
- Purple spots (Total) [3, 16]: 24
- Purple spot/cotyledon (Avg.) [3, 17]: 1.75
- Purple spots (Total) [3, 17]: 61
- Purple spot/cotyledon (Avg.) [3, 18]: 3.26
- Purple spots (Total) [3, 18]: 114
- Editing efficiency ([3]; Table 14 (Change 2), SCR7 1 μM, 1 day, cv. Hong-Kwang, DD→16L/8D, 28° C.): 7.45
- Editing efficiency ([3]; Table 14 (Change 2), SCR7 1 μM, 2 days, cv. Hong-Kwang, DD→16L/8D, 28° C.): 7.17
- Editing efficiency ([3]; Table 14 (Change 2), SCR7 1 μM, 3 days, cv. Hong-Kwang, DD→16L/8D, 28° C.): 7.54
- Editing efficiency ([3]; Table 14 (Change 2), SCR7 10 μM, 1 day, cv. Hong-Kwang, DD→16L/8D, 28° C.): 11.34
- Editing efficiency ([3]; Table 14 (Change 2), SCR7 10 μM, 2 days, cv. Hong-Kwang, DD→16L/8D, 28° C.): 13.52
- Editing efficiency ([3]; Table 14 (Change 2), SCR7 10 μM, 3 days, cv. Hong-Kwang, DD→16L/8D, 28° C.): 15.15
- Purple spot/cotyledon (Avg.) [3, 19]: 26.0
- Purple spots (Total) [3, 19]: 912
- Purple spot/cotyledon (Avg.) [3, 20]: 17.9
- Purple spots (Total) [3, 20]: 627
- Purple spot/cotyledon (Avg.) [3, 21]: 18.9
- Purple spots (Total) [3, 21]: 663
- Purple spot/cotyledon (Avg.) [3, 22]: 22.9
- Purple spots (Total) [3, 22]: 802
- Purple spot/cotyledon (Avg.) [3, 23]: 21.5
- Purple spots (Total) [3, 23]: 754
- Purple spot/cotyledon (Avg.) [3, 24]: 18.8
- Purple spots (Total) [3, 24]: 660
- Purple spot/cotyledon (Avg.) [3, 25]: 1.96
- Purple spots (Total) [3, 25]: 68
- Purple spot/cotyledon (Avg.) [3, 26]: 1.29
- Purple spots (Total) [3, 26]: 45
- Purple spot/cotyledon (Avg.) [3, 27]: 1.44
- Purple spots (Total) [3, 27]: 50
- Purple spot/cotyledon (Avg.) [3, 28]: 2.60
- Purple spots (Total) [3, 28]: 91
- Purple spot/cotyledon (Avg.) [3, 29]: 2.91
- Purple spots (Total) [3, 29]: 102
- Purple spot/cotyledon (Avg.) [3, 30]: 2.85
- Purple spots (Total) [3, 30]: 100
- increase of HDR efficiency ([3]; compared to the comparative control group): 4 times
- HDR frequency, dependence on treatment ([3]; cultivation period 0, 1, 2 or 3 days, 0, 1, 10 μM, pTC217): HDR frequency increases in accordance with an increase in the treatment time (period) and concentration
- Purple spot/cotyledon (Avg.) [3, 31]: 22.2
- Purple spots (Total) [3, 31]: 1154
- Purple spot/cotyledon (Avg.) [3, 32]: 21.8
- Purple spots (Total) [3, 32]: 1137
- Purple spot/cotyledon (Avg.) [3, 33]: 1
- Purple spots (Total) [3, 33]: 52
- Purple spot/cotyledon (Avg.) [3, 34]: 2.61
- Purple spots (Total) [3, 34]: 136
- increase of HDR [4]: 2 to 19 times
- increase of HDR [5]: about 19 times
- increase of HDR [6]: ~5 times
